The source made the active and inactive calls.

Common to all, as to assay type: protein-complex assay
The target of experiment [1] is T1, Protein farnesyltransferase (Homo sapiens, UniProt P49354+P49356). Nature of the experiment: In vitro inhibition of human recombinant Protein farnesyltransferase.
Experiment [2] has as its target T1, Protein farnesyltransferase. Description: In vitro inhibition of human recombinant Protein farnesyltransferase with respect to FPP.
Experiment [3] has the same target. Nature of the experiment: In vitro inhibition of human recombinant Protein farnesyltransferase at 20 uM (Inactive).

In general, IC50 refers to the concentration at which inhibition is half-maximal. In general, Ki refers to a measure of affinity in units of concentration, obtained from inhibition or displacement. For the compound `O=C(O)C/C(C(=O)O)=C(/CCCCCCCCCCCCCCCCOS(=O)(=O)O)C(=O)O`, the IC50 in experiment [1] was found to be 14 nM. The Ki in experiment [2] was 4.5 nM.

As for `O=C(O)C/C(C(=O)O)=C(/CCCCCCCCCCCCCCCCO)C(=O)O`, in experiment [1], the half-inhibitory concentration (IC50) turned out to be 3.3 nM.

As to `COC(=O)C/C(C(=O)OC)=C(/CCCCCCCCCCCCCCCCOS(=O)(=O)O)C(=O)OC`, the IC50 in experiment [1] worked out at 10.6 nM.

As to `COC(=O)C/C(C(=O)OC)=C(/CCCCCCCCCCCCCCCCO)C(=O)OC`, in experiment [3], the result was inactive.

Values taken from ChEMBL document CHEMBL1129156, “Oreganic acid: a potent novel inhibitor of ras farnesyl-protein transferase from an endophytic fungus” (Bioorg Med Chem Lett, 1996).
